Measurements reported in patent publication US20250145576A1, “CATHEPSIN K INHIBITOR, AND PREPARATION METHOD THEREFOR AND USE THEREOF” (SHANDONG NEW TIME PHARMACEUTICAL CO., LTD., priority 2022, published 2025).
pIC50: −log10 of the molar value.

Assays:
Cathepsin K = Cathepsin K (Homo sapiens (Human), UniProt P43235); test: Cat K inhibitor screening kit, AFC substrate fluorescence; assay type: biochemical
Description: Reagent information: Cat K inhibitor screening kit: batch number, 6L23K01500; supplier, BiVision. Drug preparation: compounds were dissolved in DMSO and prepared into 10 mM stock solutions. When in use, the stock solutions were prepared into the required concentrations by using a buffer.
Cathepsin K (CTSK, EC 3.4.22.38) is a lysosomal cysteine protease, participates in osteoclastic bone remodeling and resorption, and can further degrade collagen, gelatin and elastin. The cathepsin K inhibitor screening kit from Biovision uses the ability of the active cathepsin K to cleave a synthetic AFC-based peptide substrate to release AFC and the AFC can be easily quantified by using a fluorometer or fluorescent microplate reader. In the presence of a specific cathepsin K specific inhibitor, the cleavage of the substrate is reduced/eliminated, resulting in a reduction or complete loss of AFC fluorescence. The simple and high-throughput adaptive assay kit can be used to screen/study/characterize a potential inhibitor of the cathepsin K.
20 μL of a buffer, a Cat K inhibitor and test compounds (1 μM and 10 μM) were added to 96-well plates to serve as an EC well, an IC well and an S well, respectively; 50 μL of a Cat K enzyme solution was added into all the wells respectively and the mixture was incubated for 10-15 min at room temperature to establish an enzyme inhibitor complex; 30 μL of a Cat K substrate solution was added into all the wells and the mixture was incubated for 30-60 min at room temperature; and the final volume of the reaction was 100 μL.
The screening method was the same as 1.1, the concentrations of the test compounds were set between 0.1 nM and 10 μM, 4-5 concentrations were selected for detection, IC50 curves were drawn, and IC50 values were calculated.

[1] = Intrinsic clearance rate and half-life in rat liver microsomes; assay type: in vitro ADME; details: for half-life: rat
Description: 1 mL of a dichloromethane solution was respectively added into centrifuge tubes filled with test substance powders K2 (molecular formula C23H27N3O4, 4.6 mg), K3 (molecular formula C23H26FN3O4, 5.0 mg) and K4 (molecular formula C23H25F2N3O4, 5.6 mg) for dissolving, and subjected to ultrasonic treatment for 30 min to obtain a K2 stock solution with the mass concentration of 4.6 mg/mL, a K3 stock solution with the mass concentration of 5.0 mg/mL and a K4 stock solution with the mass concentration of 5.6 mg/mL. The stock solutions were sealedly stored in a refrigerator at −20° C. for later use. Before use, the stock solutions were gradually diluted with methanol to corresponding mass concentration to respectively prepare 0.02, 0.05, 0.22, 0.49, 0.96, 2.37 and 4.90 ng/mL of K2 series standard sample working solutions, 0.02, 0.05, 0.10, 0.19, 1.00, 2.01 and 4.93 ng/mL K3 series standard sample working solutions, and 0.10, 0.20, 0.53, 0.96, 2.42, 5.10 and 10.10 ng/mL K4 series standard sample working solutions.
5 μL of the test drugs, 2 μL of rat liver microsomes and 468 μL of a PBS buffer solution were taken by using a pipette and prepared a premixed solution. The premixed solution was incubated for 5 min in a water bath kettle at 37° C., 47.5 μL of the premixed solution was taken after the incubation was finished, and the premixed solution, 100 μL of ice-cold acetonitrile and 2.5 μL of a PBS buffer solution were added to another new tube after to be gently mixed evenly to obtain a control group. The reaction was started by adding 22.5 μL of a NADPH solution to the remaining premixed solution, the reaction solution was gently pipetted, and the reaction was stopped by immediately taking 50 μL of the premixed solution and 100 μL of acetonitrile in a new tube. Then the incubation liquid was put into the water bath for incubation, 50 μL of the incubation liquid was respectively taken at 5 min, 10 min, 20 min, 30 min, 45 min, 60 min and 90 min, and the reaction was terminated by adding 100 μL of acetonitrile. The reaction solution was centrifuged at 12,000 r/min for 10 min, and the supernatant was taken and detected on a machine.
• Chromatographic column: Hypersil GOLD 100*2.1 mm 3 μm liquid chromatography column • Mobile phase: 0.1% formic acid aqueous solution (A); and 100% acetonitrile (B) • Gradient elution (0-1 min: 50% B, 1-5 min: 50% B-90% B, 5-7 min: 90% B, 7-7.1 min: 50% B, and 7.1-10 min: 50% B) • Flow rate: 0.3 ml/min; column temperature: 40° C.; and injection volume: 5 μL […]
Sample solutions were subjected to sample injection analysis under the chromatographic and mass spectrometry conditions, and the peak areas were recorded. […]

Cathepsin B = Cathepsin B (Homo sapiens (Human), UniProt P07858); test: Screening of Cathepsin B, fluorescence; assay type: biochemical; details: >> inhibition rate did not exceed 20% at test concentration; > greater than 35%; ≈ about 50%; < less than 50%
Description: 10 μL of a buffer, a Cat B inhibitor and test compounds (1 μM and 10 μM) were added to 96-well plates to serve as an EC well, an IC well and an S well, respectively; 50 μL of a Cat B enzyme solution was added into all the wells respectively and the mixture was incubated for 10-15 min at room temperature to establish an enzyme inhibitor complex; 40 μL of a Cat B substrate solution was added into all the wells and the mixture was incubated for 30-60 min at room temperature; and the final volume of the reaction was 100 μL.
(§1) The screening method was the same as above, the concentrations of the test compounds were set between 0.1 nM and 10 μM, 4-5 concentrations were selected for detection, IC50 curves were drawn, and IC50 values were calculated.

Cathepsin S = test: Screening of Cathepsin S, fluorescence; assay type: biochemical; details: >> inhibition rate did not exceed 20% at test concentration; > greater than 35%; ≈ about 50%; < less than 50%
Description: 10 μL of a buffer, a Cat S inhibitor and test compounds (1 μM and 10 μM) were added to 96-well plates to serve as an EC well, an IC well and an S well, respectively; 50 μL of a […] was added into all the wells respectively and the mixture was incubated for 10-15 min at room temperature to establish an enzyme inhibitor complex; 40 μL of a Cat S substrate solution was added into all the wells and the mixture was incubated for 30-60 min at room temperature; and the final volume of the reaction was 100 μL.
as §1

C4-2B cells = test: Migration, invasion and adhesion of C4-2B cells; assay type: cell-based; details: preliminary
ICR mice = test: In-vivo toxicity study, single and multiple i.p. administration; details: for body weight vs vehicle group: all P>0.05
Description: Male ICR mice of 6-8 weeks were used as experimental subjects and randomly divided according to body weight after adaptive feeding for one week. Then compounds of different concentrations were prepared and used for single-administration and multiple-administration experiments by intraperitoneal injection (i.p), and a vehicle of the same component was used as a reference.
During this period, the body weight of the mice was measured daily. […] In the multiple-administration experiment, the administration doses of 50 mg/kg and 25 mg/kg were selected for administration at the frequency of once a day.

Cathepsin K, sequence (P43235 115-329): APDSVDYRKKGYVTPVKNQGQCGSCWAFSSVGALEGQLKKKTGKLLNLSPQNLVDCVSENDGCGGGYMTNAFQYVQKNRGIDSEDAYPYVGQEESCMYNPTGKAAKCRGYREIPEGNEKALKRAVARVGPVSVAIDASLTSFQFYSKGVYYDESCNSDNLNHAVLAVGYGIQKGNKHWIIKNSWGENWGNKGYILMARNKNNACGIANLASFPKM

O=C1COC[C@@H]1NC(=O)[C@@H]1CCCC[C@H]1C(=O)N1CCc2c([nH]c3c(F)cc(F)cc23)C1 [Compound K22, (1R,2R)-2-(6,8-difluoro-2,3,4,9-tetrahydro-1H-pyrido[3,4-b]indole-2-carbonyl)-N—((S)-4-oxotetrahydrofuran-3-yl)cyclohexane-1-carboxamide]
pIC50 (Cathepsin K): 7.00 to 8.00
half-life [1]: 88.5 min

O=C1COCC1NC(=O)[C@@H]1CCCC[C@H]1C(=O)N1CCc2[nH]c3ccccc3c2C1 (stereo partly drawn) [Compound K20, (1R,2R)-2-(2,3,4,5-tetrahydro-1H-pyrido[4,3-b]indole-2-carbonyl)-N-(4-oxotetrahydrofuran-3-yl)-cyclohexane-1-carboxamide]
pIC50 (Cathepsin K): 7.00 to 8.00
half-life [1]: 46.6 min

O=C1COC[C@@H]1NC(=O)[C@@H]1CCCC[C@H]1C(=O)N1CCc2c([nH]c3c(F)cccc23)C1 [Compound K21, (1R,2R)-2-(8-fluoro-2,3,4,9-tetrahydro-1H-pyrido[3,4-b]indole-2-carbonyl)-N—((S)-4-oxotetrahydrofuran-3-yl)cyclohexane-1-carboxamide]
Cat B/K ratio of inhibitory activities (Cathepsin B): >710
pIC50 (Cathepsin K): 7.00 to 8.00
half-life [1]: 42.4 min
Cat S/K ratio of inhibitory activities (Cathepsin S): >710

CC(C)(C)CN(Cc1ccc(-c2ccc(F)cc2)cc1)c1nccc(C#N)n1 [Compound K4, 2-[(2,2-dimethylpropyl){[4-(4-fluorophenyl)phenyl]methyl}amino]pyrimidine-4-carbonitrile]
reduction of clearance rate compared with Ref-03 [1]: 2 times

CN1CCN(c2nc(-c3ccc(CN(CC(C)(C)C)c4nccc(C#N)n4)cc3)cs2)CC1 [Compound K18, 2-((4-(2-(4-methylpiperazin-1-yl)thiazol-4-yl)benzyl) (neopentyl)amino)pyrimidine-4-carbonitrile]
Cat B/K ratio of inhibitory activities (Cathepsin B): >>5,780
migration, invasion and adhesion of C4-2B cells (C4-2B cells): inhibit the migration, invasion and adhesion processes of the C4-2B cells in a concentration-dependent manner
pIC50 (Cathepsin K): 7.00 to 8.00
Cat S/K ratio of inhibitory activities (Cathepsin S): >>5,780
in-vivo toxicity (overall) (ICR mice; ICR mice): relatively low in-vivo toxicity
body weight vs vehicle group (ICR mice; i.p. 50 mg/kg and 25 mg/kg once a day, one week): No significant difference
histopathology of liver, kidneys and heart vs vehicle group (ICR mice; multiple administration 50 mg/kg and single administration 500 mg/kg): no obvious pathological change was observed
body weight vs vehicle group (ICR mice; single i.p. administration 500 mg/kg and 300 mg/kg): No significant difference
